Data published in patent publication US20150105252A1, “SUBSTITUTED PYRAZOLES AS HERBICIDES” (E I DU PONT DE NEMOURS AND COMPANY, priority 2013, published 2015).

Tests used:
Details in all cases: scale 0 to 100
chickweed = assay: Test D preemergence; format: in vivo, Stellaria media
In short: (§1)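 Seeds are planted in silt loam and treated preemergence, while parallel plantings in a peat moss/vermiculite medium with starter nutrients receive postemergence sprays at the 1- to 4-leaf stage. All formulations use a non-phytotoxic solvent mixture with surfactant. Plants are kept in a controlled growth environment and rated visually after 14–21 days.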

pigweed = assay: Test D preemergence; format: in vivo, Amaranthus retroflexus
In short: as §1

mustard, wild = assay: Test D preemergence; format: in vivo, Sinapis arvensis
In short: as §1

windgrass [1] = assay: Test D preemergence; format: in vivo, Apera spica-venti
In short: as §1

bromegrass, downy = assay: Test D postemergence; format: in vivo, Bromus tectorum
In short: as §1

field violet = assay: Test D postemergence; format: in vivo, Viola arvensis
From the text: (§2) Seeds of plant species selected from bluegrass (annual bluegrass, Poa annua), blackgrass (Alopecurus myosuroides), canarygrass (littleseed canarygrass, Phalaris minor), chickweed (common chickweed, Stellaria media), galium (catchweed bedstraw, Galium aparine), bromegrass, downy (downy bromegrass, Bromus tectorum), field poppy (Papaver rhoeas), field violet (Viola arvensis), foxtail, green (green foxtail, Setaria viridis), deadnettle (henbit deadnettle, Lamium amplexicaule), ryegrass, Italian (Italian ryegrass, Lolium multiflorum), kochia (Kochia scoparia), lambsquarters (Chenopodium album), oilseed rape (Brassica napus), pigweed (redroot pigweed, Amaranthus retroflexus), chamomile (scentless chamomile, Matricaria inodora), speedwell (bird's-eye speedwell, Veronica persica), barley, spring (spring barley, Hordeum vulgare), wheat, spring (spring wheat, Triticum aestivum), buckwheat, wild (wild buckwheat, Polygonum convolvulus), mustard, wild (wild mustard, Sinapis arvensis), oat, wild (wild oat, Avena fatua), radish, wild (wild radish, Raphanus raphanistrum), windgrass (Apera spica-venti), Russian thistle (Salsola kali), barley, winter (winter barley, Hordeum vulgare), and wheat, winter (winter wheat, Triticum aestivum) were planted into a silt loam soil and treated preemergence with test chemicals formulated in a non-phytotoxic solvent mixture which included a surfactant.
(§3) At the same time, these species were planted in pots containing Redi-Earth® planting medium (Scotts Company, 14111 Scottslawn Road, Marysville, Ohio 43041) comprising spaghnum peat moss, vermiculite, wetting agent and starter nutrients and treated with postemergence applications of the test chemicals formulated in the same manner. Plants ranged in height from 2 to 18 cm (1- to 4-leaf stage). Treated plants and controls were maintained in a controlled growth environment for 14 to 21 days after which time all species were compared to controls and visually evaluated. Plant response ratings, summarized in Table D, are based on a scale of 0 to 100 where 0 is no effect and 100 is complete control. A dash (-) response means no test result.

oilseed rape = assay: Test D postemergence; format: in vivo, Brassica napus
In short: as §1

wheat, spring = assay: Test D postemergence; format: in vivo, Triticum aestivum
From the text: as §2, §3

wheat, winter = assay: Test D postemergence; format: in vivo, Triticum aestivum
From the text: as §2, §3

windgrass [2] = assay: Test D postemergence; format: in vivo, Apera spica-venti
From the text: as §2, §3

| SMILES | Plant response rating, Chickweed (chickweed; 31 g ai/ha) | Plant response rating, Chickweed (chickweed; 62 g ai/ha) | Plant response rating, Chickweed (chickweed; 125 g ai/ha) | Plant response rating, Chickweed (chickweed; 250 g ai/ha) | Plant response rating, Pigweed (pigweed; 62 g ai/ha) | Plant response rating, Pigweed (pigweed; 125 g ai/ha) | Plant response rating, Pigweed (pigweed; 250 g ai/ha) | Plant response rating, Mustard, Wild (mustard, wild; 62 g ai/ha) | Plant response rating, Mustard, Wild (mustard, wild; 125 g ai/ha) | Plant response rating, Mustard, Wild (mustard, wild; 250 g ai/ha) | Plant response rating, Windgrass (windgrass [1]; 62 g ai/ha) | Plant response rating, Windgrass (windgrass [1]; 125 g ai/ha) | Plant response rating, Windgrass (windgrass [1]; 250 g ai/ha) | Bromegrass, Downy plant response rating (bromegrass, downy; Postemergence, 31 g ai/ha) | Bromegrass, Downy plant response rating (bromegrass, downy; Postemergence, 125 g ai/ha) | Bromegrass, Downy plant response rating (bromegrass, downy; Postemergence, 250 g ai/ha) | Bromegrass, Downy plant response rating (bromegrass, downy; postemergence, 62 g ai/ha) | Field Violet plant response rating (field violet; Postemergence, 31 g ai/ha) | Field Violet plant response rating (field violet; Postemergence, 125 g ai/ha) | Field Violet plant response rating (field violet; Postemergence, 250 g ai/ha) | also measured |
| --- | --- | --- | --- | --- | --- | --- | --- | --- | --- | --- | --- | --- | --- | --- | --- | --- | --- | --- | --- | --- | --- |
| CCCc1cc(C(=O)NCC(F)(F)F)nn1Cc1cc(C(F)(F)F)nn1C [Compound 138] | 100 | 100 | 100 | 100 | 100 | 100 | 100 | 100 | 100 | 100 | 45 | 100 | 100 | 10 | 30 | 20 | 10 | 80 | 75 | 95 | Field Violet plant response rating (field violet; postemergence, 62 g ai/ha): 80; Oilseed Rape plant response rating (oilseed rape; Postemergence, 31 g ai/ha): 60; Oilseed Rape plant response rating (oilseed rape; Postemergence, 125 g ai/ha): 90; Oilseed Rape plant response rating (oilseed rape; Postemergence, 250 g ai/ha): 100; Oilseed Rape plant response rating (oilseed rape; postemergence, 62 g ai/ha): 60; Wheat, Spring plant response rating (wheat, spring; Postemergence, 31 g ai/ha): 15; Wheat, Spring plant response rating (wheat, spring; Postemergence, 125 g ai/ha): 15; Wheat, Spring plant response rating (wheat, spring; Postemergence, 250 g ai/ha): 25; Wheat, Spring plant response rating (wheat, spring; postemergence, 62 g ai/ha): 15; Wheat, Winter plant response rating (wheat, winter; Postemergence, 31 g ai/ha): 15; Wheat, Winter plant response rating (wheat, winter; Postemergence, 125 g ai/ha): 20; Wheat, Winter plant response rating (wheat, winter; Postemergence, 250 g ai/ha): 35; Wheat, Winter plant response rating (wheat, winter; postemergence, 62 g ai/ha): 15; Windgrass plant response rating (windgrass [2]; Postemergence, 31 g ai/ha): 20; Windgrass plant response rating (windgrass [2]; Postemergence, 125 g ai/ha): 35; Windgrass plant response rating (windgrass [2]; Postemergence, 250 g ai/ha): 60; Windgrass plant response rating (windgrass [2]; postemergence, 62 g ai/ha): 20 |
| CCOc1cc(C(=O)NC2CC2)nn1Cc1ccnc(C(F)(F)F)c1 [Compound 189] | 95 | 100 | 100 | 100 | 95 | 100 | 100 | 100 | 100 | 100 | 65 | 100 | 100 | 15 | 15 | 20 | 15 | 60 | 100 | 100 | Field Violet plant response rating (field violet; postemergence, 62 g ai/ha): 60; Oilseed Rape plant response rating (oilseed rape; Postemergence, 31 g ai/ha): 40; Oilseed Rape plant response rating (oilseed rape; Postemergence, 125 g ai/ha): 55; Oilseed Rape plant response rating (oilseed rape; Postemergence, 250 g ai/ha): 60; Oilseed Rape plant response rating (oilseed rape; postemergence, 62 g ai/ha): 40; Wheat, Spring plant response rating (wheat, spring; Postemergence, 31 g ai/ha): 0; Wheat, Spring plant response rating (wheat, spring; Postemergence, 125 g ai/ha): 5; Wheat, Spring plant response rating (wheat, spring; Postemergence, 250 g ai/ha): 25; Wheat, Spring plant response rating (wheat, spring; postemergence, 62 g ai/ha): 0; Wheat, Winter plant response rating (wheat, winter; Postemergence, 31 g ai/ha): 20; Wheat, Winter plant response rating (wheat, winter; Postemergence, 125 g ai/ha): 25; Wheat, Winter plant response rating (wheat, winter; Postemergence, 250 g ai/ha): 50; Wheat, Winter plant response rating (wheat, winter; postemergence, 62 g ai/ha): 20; Windgrass plant response rating (windgrass [2]; Postemergence, 31 g ai/ha): 15; Windgrass plant response rating (windgrass [2]; Postemergence, 125 g ai/ha): 20; Windgrass plant response rating (windgrass [2]; Postemergence, 250 g ai/ha): 35; Windgrass plant response rating (windgrass [2]; postemergence, 62 g ai/ha): 15 |
